Test results from patent publication US20100287638A1, “NEURAL TUMOR STEM CELLS AND METHODS OF USE THEREOF” (The Hospital for Sick Children, priority 2007, published 2010).
Entries after “also recorded” stand apart in the source; their conditions may differ. Like-named read-outs stand apart in the source and are kept apart here.

Legend:
GNS cells [1] = test: GNS cell expansion culture; assay type: cell-based, human
Protocol: GNS cell expansion was carried out as described previously for human foetal NS cells (Sun et al., (2008) Mol Cell Neurosci 38, 245-258). Tissue culture flasks were pre-treated with Laminin, 10 μg/ml in PBS, (Sigma), for at least 3 hrs at 37° C. […] GNS cells were routinely grown to confluence, dissociated using Accutase (Sigma), and then split 1:3 to 1:5. Media was replaced with fresh media every 3-5 days. For all routine analysis we typically worked with cells between passage 10 and 20. For freezing, we re-suspended cell pellets in 0.5 ml of 10% DMSO/Media and placed in a −80° C. freezer. For long-term storage, liquid nitrogen was used. […] Fetal NS cells CB541 and CB660 are described by Sun et al., 2008, supra), while hf240, hf286, and hf289 (used in the microarrays) were isolated using similar techniques.

tumor lines (GNS cells) = test: Validation with compounds from an independent supplier, tumor lines; assay type: cell-based, human; conditions: 10 μM, 2 days
Protocol: (§1) Here, selected compounds from an independent source were applied (2 μM for Tegaserod, 10 μM for all others) to G179 (left), HS 27 (middle) or fetal NS (right).
(§2) We carried out two fully independent screens using G144, G166, and G179, as well as a human fibroblast cell line (HS27). […] We chose Glioma NS cell lines to validate several of the drugs, from each class, using compounds obtained from an independent supplier (FIG. 18D).
(§3) For the drug screen we used the IncucyteHD system (Essen Instruments, USA), which enables simultaneously monitoring of six 96-well microplates. GNS cell lines were plated at 10-20% confluence on 96 well plates (Iwaki) coated with laminin (10 μg/ml for 3 hours). The NCC NIH Chemical Compounds library (http://www.nihclinicalcollection.com/) was added to the plates at a final concentration of 10 μM per compound per well (DMSO 0.1%). Images were captured before and after the addition of the library every half hour for 2.5 days in an automated manner using the Incucyte HD device (Essen Instruments, USA). Relative increase in cell number values were generated for every well using confluence readings obtained at each time-point relative to the starting confluence. For every cell line (G144, G166, G179, and HS27) two independent screens were run. HS27 is a human foreskin fibroblast line (American Type Culture Collection). […] Every well associated with a reduction in cell number within the 5* percentile in at least 3 independent screens was visually inspected.

fibroblast cells (HS27) = test: Validation with compounds from an independent supplier, fibroblasts; assay type: cell-based, human; conditions: 10 μM, 2 days
Protocol: as §1, §2, §3

fetal NS cells = test: Validation with compounds from an independent supplier, fetal NS cells; assay type: cell-based, human; conditions: 10 μM, 2 days
Protocol: as §1, §2, §3

[2] = tested on: GNS cell lines G144, G166, and G179; assay type: cell-based; conditions: 10 μM, two days
[3] = tested on: human fibroblast cell line (HS27); test: Live-cell imaging (IncucyteHD) chemical screen on fibroblast line; assay type: cell-based; conditions: 10 μM, two days
Protocol: as §2, §3

GNS cells [4] = test: TUNEL and caspase staining of treated cells; assay type: cell-based, human; conditions: treated versus untreated cells
Text: FIG. 18E is a set of photomicrographs of cells either untreated or treated with indatraline and stained for TUNEL and caspase.

G144 cells = test: Astrocyte differentiation on BMP-4 exposure, G144; assay type: cell-based, human; conditions: BMP-4 10 ng/ml, 7 days
Protocol: (§4) To determine whether GNS cells could respond to inductive signals and generate astrocytes, we exposed cells to BMP-4 or serum. […] This response is similar to that of human fetal NS cells (Sun et al., (2008) Mol Cell Neurosci 38, 245-258). Similar results were seen using serum treatment. […] Thus, while GNS cells retain a capacity to differentiate, the efficiency and lineage choice vary dramatically between each line.
(§5) All differentiation was carried out on laminin-coated plastic, either in 4-well plates (˜0.5-1×10^5 cells/well) (Nunc), or for time-lapse movies using 24-well Imagelock microplates (Essen Instruments). For oligodendrocytes and neuronal differentiation we used the same basal media but lacking EGF or FGF-2 (i.e., growth factor withdrawal). For astrocyte differentiation, we supplemented basal media with either BMP at 10 ng/ml (R and D systems), or 1% serum (Sigma). In each case, cells were washed twice with PBS or minimal media before adding the final differentiation media. Samples were processed for immunocytochemistry, typically 7-10 days later.
(§6) Cells w ere fixed in 4% PFA for 10 min and then washed with PBS+0.1% TritonX-100 (PBST). Blocking was carried out using 1% goat serum for 30 mins. […] Images were acquired using a Leica DMI400B inverted fluorescence microscope linked to a DFC340FX camera.

G179 cells = test: Astrocyte differentiation on BMP-4 exposure, G179; assay type: cell-based, human; conditions: BMP-4 10 ng/ml, 7 days
Protocol: as §4, §5, §6

G166 cells = test: Astrocyte differentiation on BMP-4 exposure, G166; assay type: cell-based, human; conditions: BMP-4 treatment
Protocol: as §4, §5, §6

Question: How did the “effect on the cells in expansion culture” value (GNS cells [1]) turn out when “LIF: the cytokine LIF (leukemia inhibitory factor)” was run?
Answer: no apparent effect

Question: `CN[C@H]1CC[C@@H](c2ccc(Cl)c(Cl)c2)c2ccccc21` [sertraline] was tested. Which “cell death in tumor lines” value (tumor lines (GNS cells)) did it give?
Answer: cell death

Question: And the “effect on fibroblast cells” value (fibroblast cells (HS27))?
Answer: less striking or no effect

Question: What about the “cell death in fetal NS cells” value (fetal NS cells) of the same molecule?
Answer: cell death

Question: With `CN1CCN(CCCN2c3ccccc3Sc3ccc(C(F)(F)F)cc32)CC1` [Trifluoperazine] as the molecule, how does the “killing of / effect on all GNS cell lines” value (“killing of / effect” for short) [2] read?
Answer: killed all GNS cell lines

Question: With `CNC1CC(c2ccc(Cl)c(Cl)c2)c2ccccc21` (stereo not drawn) [indatraline] as the molecule, how does the effect on fibroblasts [3] read?
Answer: no effect

Question: And the “cell death in tumor lines” value (tumor lines (GNS cells))?
Answer: cell death

Question: And the “apoptotic cell death (TUNEL and caspase staining)” value (GNS cells [4])?
Answer: dying by an apoptotic pathway; also recorded: increase in TUNEL and caspase staining

Question: And the “effect on fibroblast cells” value (fibroblast cells (HS27))?
Answer: less striking or no effect

Question: And the “cell death in fetal NS cells” value (fetal NS cells)?
Answer: cell death

Question: And the “killing of / effect” value [2]?
Answer: killed all GNS cell lines

Question: What about the “killing of / effect” value ([2]; listed as Indatraline) of the same molecule?
Answer: affected all GNS cells

Question: How did the “killing of / effect” value [2] turn out when `CN1CCN(c2nc3cc(C(F)(F)F)ccc3n3cccc23)CC1.O=C(O)/C=C\C(=O)O.O=C(O)/C=C\C(=O)O` [CGS 12066B] was run?
Answer: killed all GNS cell lines

Question: For `[H]/N=C(/NCCCCC)N/N=C/c1c[nH]c2ccc(OC)cc12` [tegaserod], which “killing of / effect” value [2] is on record?
Answer: killed all GNS cell lines

Question: Which “cell death in tumor lines” value (tumor lines (GNS cells)) does the source give for `C[C@@H]1CN(CCCn2c3ccccc3c3ccccc32)C[C@H](C)N1` [Rimcazole] here?
Answer: cell death

Question: And the “effect on fibroblast cells” value (fibroblast cells (HS27))?
Answer: less striking or no effect

Question: What about the “cell death in fetal NS cells” value (fetal NS cells) of the same molecule?
Answer: cell death

Question: And the “killing of / effect” value [2]?
Answer: killed all GNS cell lines

Question: Which results are given for `Fc1ccc([C@@H]2CCNC[C@H]2COc2ccc3c(c2)OCO3)cc1` [paroxetine]?
Answer: effect on fibroblasts [3]: no effect; killing of / effect on all GNS cell lines [2]: killed all GNS cell lines; killing of / effect on all GNS cell lines ([2]; listed as Paroxetine): affected all GNS cells

Question: Which “killing of / effect” value [2] does the source give for `c1ccc2c(c1)Nc1ccccc1S2` [10H-phenothiazine] here?
Answer: killed all GNS cell lines

B1: BMP-4: inductive signal added to basal media for astrocyte differentiation (R and D systems) (protein, UniProt P12644 293-408, looked up)
Bone morphogenetic protein 4: SPKHHSQRARKKNKNCRRHSLYVDFSDVGWNDWIVAPPGYQAFYCHGDCPFPLADHLNSTNHAIVQTLVNSVNSSIPKACCVPTELSAISMLYLDEYDKVVLKNYQEMVVEGCGCR
Question: With B1 as the molecule, how does the “differentiation into GFAP+ cells” value (G144 cells) read?
Answer: majority of cells express high levels of GFAP; also recorded: efficiently differentiate into GFAP^+ cells

Question: And the “differentiation into GFAP+ cells” value (G179 cells)?
Answer: majority of cells express high levels of GFAP; also recorded: efficiently differentiate into GFAP^+ cells

Question: What about the “differentiation into GFAP+ cells” value (G179 cells; listed as BMP) of the same molecule?
Answer: expressed high levels of GFAP

Question: And the “differentiation into GFAP+ cells” value (G166 cells)?
Answer: did differentiate

Question: What about the “differentiation into GFAP+ cells” value (G166 cells; listed as BMP) of the same molecule?
Answer: could only be observed at low frequency
